Measured values taken from the supplement of paper PMC12317010.
Counter-ions that a name gives are not always drawn.

Test: collision cross section in nitrogen (drift tube, single-field); higher = larger gas-phase ion size
[1] = ion type: [M+H], ion source: APCI, ion mode: Positive
[2] = ion type: [M-H], ion source: ESI, ion mode: Negative
[3] = ion type: [M+H], ion source: ESI, ion mode: Positive
[4] = ion type: [M+Na], ion source: ESI, ion mode: Positive
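Note: chemical standards at 10 µM analysed by drift tube IMS-QTOF MS in about 3.95 torr nitrogen, mean of duplicate injections differing ≤1%, mass error below 10 ppm.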

Structure (SMILES)	collision cross section in nitrogen [1] [Å²]	collision cross section in nitrogen [2] [Å²]	collision cross section in nitrogen [3] [Å²]	collision cross section in nitrogen [4] [Å²]
CCCN(CCC)c1c([N+](=O)[O-])cc(C(C)C)cc1[N+](=O)[O-] [Isopropalin]	172.4	175.1	–	–
CCCCCCCCCCCC(=O)OC(C)C [Isopropyl Laurate]	–	165.3	–	–
Cc1ccc(C(C)C)cc1O [Isopropyl-o-cresol]	–	136.9	–	–
CC(C)NCC(O)c1ccc(O)c(O)c1 (stereo not given) [Isoproterenol hydrochloride]	–	151.9	151	–
CC(C)c1ccc(NC(=O)N(C)C)cc1 [Isoproturon]	152.9	155.4	152.1	158.8
c1ccc2cnccc2c1 [Isoquinoline]	122.3	–	–	–
CS(=O)(=O)c1cc(C(F)(F)F)ccc1C(=O)c1cnoc1C1CC1 [Isoxaflutole]	–	175.5	–	185.2
CC1(C)[C@H](/C=C2\CCSC2=O)[C@@H]1C(=O)OCc1coc(Cc2ccccc2)c1 [Kadethrin]	–	–	–	192.5
O=c1c(O)c(-c2ccc(O)cc2)oc2cc(O)cc(O)c12 [Kaempferol]	163.2	162.2	162.8	–
C[C@H]1O[C@H](O[C@H]2[C@H](O)[C@@H](O)[C@@H](O)[C@H](O)[C@@H]2O)[C@@H](N)C[C@@H]1NC(=N)C(=O)O [Kasugamycin hydrochloride]	–	178	165.9	–
CNC1(c2ccccc2Cl)CCCCC1=O (stereo not given) [Ketamine hydrochloride]	149.7	–	149.4	158.8
CC(=O)N1CCN(c2ccc(OC[C@H]3CO[C@](Cn4ccnc4)(c4ccc(Cl)cc4Cl)O3)cc2)CC1 [Ketoconazole]	217.3	–	216.8	225.3
COc1c2occc2c(OC)c2c(=O)cc(C)oc12 [Khellin]	151.6	–	151.1	167.5
c1coc(CNc2[nH]cnc3ncnc2-3)c1 [Kinetin]	144.3	148.4	144.4	159.2
OC[C@@H](O)[C@H](O)[C@@H](O)[C@@H](O)CO [L-Glucitol]	–	132.8	–	142.9
N[C@@H](CCC(=O)O)C(=O)O [L-Glutamic acid hydrochloride]	–	125.9	–	–
N[C@@H](Cc1ccccc1)C(=O)O [L-Phenylalanine]	–	140.8	–	–
CC(CCc1ccccc1)NCC(O)c1ccc(O)c(C(N)=O)c1 (stereo not given) [Labetalol hydrochloride]	175.7	–	175.2	176.8
CCOC(=O)C(C)OC(=O)c1cc(Oc2ccc(C(F)(F)F)cc2Cl)ccc1[N+](=O)[O-] (stereo not given) [Lactofen]	–	196	–	212.7
CCCCCCCCCCCCN1CCCCCC1=O [Laurocapram]	185.5	–	184.7	185.4
CCCCCCCCCCCCOC(=O)c1cc(O)c(O)c(O)c1 [Lauryl gallate]	–	183.1	–	–
